Laboratory results taken from patent US11932897B2, “Biosynthesis of curcuminoids in mammalian cells” (University of Kentucky Research Foundation, priority 2018, dated 2024).

Experiments:
[1] = tested on: radiation-induced oral mucositis; test: Syrian hamster model of radiation-induced oral mucositis; details: sustained presence of curcumin from in vivo biosynthesis, versus irradiated hamsters without treatment or with positive control; 60 Gy
Excerpt: Briefly, the hamster is anesthetized, the left cheek pouch is clamped between acrylic sheets to hold it in place, and each cheek pouch is exposed to 60 Gy total irradiation in a linear accelerator (LINAC). The use of the LINAC system provides gamma radiation exposure, is clinically relevant, and provides tight control of the radiation dose, reducing animal-to-animal exposure differences. For up to three weeks after irradiation, the hamsters is weighed daily and cheeks extracted to evaluate injury based on a well-established, validated scale (Table 2).
Equal numbers of male and female hamsters are randomly divided into groups (n=8). Negative controls comprise non-irradiated, non-treated; nonirradiated, treated; and irradiated, nontreated groups. […] The treatment groups are determined based on the curcuminoid production levels, bioavailability, and duration of production achievable in the in vivo systems described above. A preferred treatment is animals stably producing curcuminoids following AAV8-mediated transfection of liver and providing therapeutically relevant curcuminoid concentrations in circulation. The primary alternative is local AAV-mediated transfection of tissues in the cheek pouch. Another alternative approach is HEK293-ddCCM or HEK-CCM cells encapsulated in lysine/alginate spheres and implanted s.c. or i.p. in tissue cages.

[2] = cited from earlier work
[3] = tested on: reactive oxygen species (ROS) within cells; test: CellROX Deep Red assay of cellular oxidative stress after H2O2 treatment; type: cell-based; details: for effect on CellROX fluorescence / oxidation (in words): 1 mM H2O2 for 30 min, then CellROX Deep Red, transfected cells in substrate-supplemented media, or supplemented media alone
Protocol: Cells were exposed to 1 mM H2O2 for 30 min before incubation with CellROX Deep Red. Blank: untransfected cells. F: ferulic acid-supplemented media. P: p-courmaric acid-supplemented media. pGL3: luciferase-encoding plasmid.
Additionally, the antioxidant potential of heterologously produced curcuminoids was investigated using CellROX Deep Red (Invitrogen, Carlsbad, Calif.), a fluorogenic probe for cellular oxidative stress. The cell-permeable CellROX dye is non-fluorescent in its reduced state but becomes highly fluorescent upon oxidation by reactive oxygen species (ROS) within cells. Cells were treated with 1 mM H2O2 to induce oxidative stress and subsequently incubated with CellROX before quantifying the resulting fluorescence (FIG. 11).

[4] = in vivo; cited from earlier work

Row | SMILES | severity and duration of OM [1] | half-life in plasma [2] | reduction in CellROX fluorescence ([3]; cells producing CCM from ferulic acid (4CL1/DCS/CURS1), 1 mM H2O2 for 30 min before CellROX Deep Red) [%] | oral bioavailability [4] [%] | effect on CellROX fluorescence / oxidation (in words) [3]
1 | COc1cc(/C=C/C(=O)CC(=O)/C=C/c2ccc(O)c(OC)c2)ccc1O [CCM, curcumin] | significantly reduces severity and duration of OM | relatively short | 37 | ~1 | –
2 | COc1cc(/C=C/C(=O)O)ccc1O [ferulic acid] | – | – | – | – | Neither the presence of p-coumaric acid nor ferulic acid, nor transfection with pGL3 (encoding luciferase), had any effect
3 | O=C(O)/C=C/c1ccc(O)cc1 [p-coumaric acid] | – | – | – | – | Neither the presence of p-coumaric acid nor ferulic acid, nor transfection with pGL3 (encoding luciferase), had any effect
